This test deals with NCI-H929 multiple myeloma cells. Put plainly: Cell Titer-GLO (CTG) assay for proliferation of NCI-H929 cells. As to conditions: Homo sapiens, 72 hours. The class given is cell-based. The protocol:
1. Experimental objective: To determine inhibitory activities of compounds on NCI-H929 multiple myeloma cells.
NCI-H929 cells, purchased from Nanjing Cobioer Biotechnology Co., Ltd, were cultured in RPM11640 (Viva; C3010-0500) medium containing 10% fetal bovine serum (Viva, C04002-500) and 1% of penicillin-streptomycin at 37° C. with 5% of C02 and saturated humidity conditions.
The cells in logarithmic growth phase were plated at 5000 cells per well of a 96-well plate and after overnight incubation, compounds at 0.00512 nM, 0.0256 nM, 0.128 nM, 0.64 nM, 3.2 nM, 16 nM, 80 nM, and 400 nM were dosed into the plate with each dose in 2 duplicate wells. Cells were incubated at 37° C., 5% CO2 for 72 hours. After the incubation, the plate was placed at room temperature for half an hour, and then 50 μL of Cell Titer-Glo® (Promega, G7573) was added. The plate was placed on a shaker for uniform mixing for 2 minutes and was placed in the dark at room temperature for 10 minutes. The luminance signal was measured using SpectraMax Paradigm (Molecular Devices).
Cell activity inhibition rate (%)=1 00−(RLUcompound−RLUblank)/(RLUcontrol−RLUblank)×100%, where control refers to the 0.1% DMSO treatment group, and blank refers to the culture medium control. IC50 values and maximum inhibition rates of the compounds were calculated using a nonlinear regression function “Dose-Response-Inhibition” in Graphpad Prism 7.0.
As to `Cc1nc(N2CCN(Cc3ccc(Cc4ccc5c6c(cccc46)C(=O)N5[C@H]4CCC(=O)NC4=O)cc3)CC2)cc(-n2cnc(C)n2)n1` [Example 46, (S)-3-(6-(4-((4-(2-methyl-6-(3-methyl-1H-1,2,4-triazol-1-yl)pyrimidin-4-yl)piperazin-1-yl)methyl)benzyl)-2-oxobenzo[cd]indol-1(2H)-yl)piperidin-2,6-dione], the IC50 (commonly the midpoint of a concentration-inhibition curve) was found to be 0.01 nM.
The figure for `Cc1nc(N2CCN(C3CN(Cc4ccc(Cc5ccc6c7c(cccc57)C(=O)N6C5CCC(=O)NC5=O)cc4)C3)CC2)cc(-n2cnc(C)n2)n1` (stereo not shown) [Example 48, 3-(6-(4-((3-(4-(2-methyl-6-(3-methyl-1H-1,2,4-triazol-1-yl)pyrimidin-4-yl)piperazin-1-yl)azetidin-1-yl)methyl)benzyl)-2-oxobenzo[cd]indol-1(2H)-yl)piperidin-2,6-dione] is 0.002 nM; for `Cc1ncn(-c2ncc(F)c(N3CCN(C4CN(Cc5ccc(Cc6ccc7c8c(cccc68)C(=O)N7C6CCC(=O)NC6=O)cc5)C4)CC3)n2)n1` (stereo not shown) [Example 49, 3-(6-(4-((3-(4-(5-fluoro-2-(3-methyl-1H-1,2,4-triazol-1-yl)pyrimidin-4-yl)piperazin-1-yl)azetidin-1-yl)methyl)benzyl)-2-oxobenzo[cd]indol-1(2H)-yl)piperidin-2,6-dione] it is 0.003 nM.
Regarding `Cc1nc(N2CCN(Cc3ccc(Cc4ccc5c6c(cccc46)C(=O)N5C4CCC(=O)NC4=O)cc3)CC2)cc(-n2cnc(Cl)c2)n1` (stereo not shown) [Example 50, 3-(6-(4-((4-(6-(-4-chloro-1H-imidazol-1-yl)-2-methylpyrimidin-4-yl)piperazin-1-yl)methyl)benzyl)-2-oxobenzo[cd]indol-1(2H)-yl)piperidin-2,6-dione], the IC50 turned out to be 0.01 nM.
In turn, `Cc1nc(N2CCN(Cc3ccc(Cc4ccc5c6c(cccc46)C(=O)N5C4CCC(=O)NC4=O)cc3)CC2)cc(-n2cnc(C#N)c2)n1` (stereo not shown) [Example 51, 3-(6-(4-((4-(6-(-4-cyano-1H-imidazol-1-yl)-2-methylpyrimidin-4-yl)piperazin-1-yl)methyl)benzyl)-2-oxobenzo[cd]indol-1(2H)-yl)piperidin-2,6-dione] yielded an IC50 of 0.01 nM.
Regarding `Cc1ncn(-c2nc(N3CCN(C4CN(Cc5ccc(Cc6ccc7c8c(cccc68)C(=O)N7C6CCC(=O)NC6=O)cc5)C4)CC3)cc(C(F)(F)F)n2)n1` (stereo not shown) [Example 52, 3-(6-(4-((3-(4-(2-(3-methyl-1H-1,2,4-triazol-1-yl)-6-(trifluoromethyl)pyrimidin-4-yl)piperazin-1-yl)azetidin-1-yl)methyl)benzyl)-2-oxobenzo[cd]indol-1(2H)-yl)piperidin-2,6-dione], the concentration for half-maximal inhibition (IC50) was 0.01 nM.
`Cc1ncn(-c2cccc(N3CCN(C4CN(Cc5ccc(Cc6ccc7c8c(cccc68)C(=O)N7C6CCC(=O)NC6=O)cc5)C4)CC3)n2)n1` (stereo not shown) [Example 53, 3-(6-(4-((3-(4-(6-(3-methyl-1H-1,2,4-triazol-1-yl)pyridin-2-yl)piperazin-1-yl)azetidin-1-yl)methyl)benzyl)-2-oxobenzo[cd]indol-1(2H)-yl)piperidin-2,6-dione] displayed a concentration for half-maximal inhibition (IC50) of 0.003 nM.
Regarding `Cc1nc(N2CCN(C3CN(Cc4ccc(Cc5ccc6c7c(cccc57)C(=O)N6C5CCC(=O)NC5=O)cc4)C3)CC2)cc(-n2cnc(C(F)(F)F)c2)n1` (stereo not shown) [Example 54, 3-(6-(4-((3-(4-(2-methyl-6-(4-(trifluoromethyl)-1H-imidazol-1-yl)pyrimidin-4-yl)piperazin-1-yl)azetidin-1-yl)methyl)benzyl)-2-oxobenzo[cd]indol-1(2H)-yl)piperidin-2,6-dione], it took 0.004 nM to reach half-maximal inhibition (IC50).
On to `O=C1CCC(N2C(=O)c3cccc4c(Cc5ccc(CN6CC(CN7CCN(c8cccc(-n9ccnc9)n8)CC7)C6)cc5)ccc2c34)C(=O)N1` (stereo not shown) [Example 55, 3-(6-(4-((3-((4-(6-(1H-imidazol-1-yl)pyridin-2-yl)piperazin-1-yl)methyl)azetidin-1-yl)methyl)benzyl)-2-oxobenzo[cd]indol-1(2H)-yl)piperidin-2,6-dione], for which inhibition was half-maximal at 0.2 nM (IC50).
Regarding `O=C1CCC(N2C(=O)c3cccc4c(Cc5ccc(CN6CCN(c7cc(C(F)(F)F)nc(-n8cnc(C(F)(F)F)c8)n7)CC6)cc5)ccc2c34)C(=O)N1` (stereo not shown) [Example 56, 3-(2-oxo-6-(4-((4-(6-(trifluoromethyl)-2-(4-(trifluoromethyl)-1H-imidazol-1-yl)pyrimidin-4-yl)piperazin-1-yl)methyl)benzyl)benzo[cd]indol-1(2H)-yl)piperidin-2,6-dione], the half-inhibitory concentration (IC50) turned out to be 0.1 nM.
Take `NC(=O)c1cn(-c2cccc(N3CCN(Cc4ccc(COc5cccc6c5CN([C@H]5CCC(=O)NC5=O)C6=O)cc4)CC3)n2)cn1` [Example 57, (S)-1-(6-(4-(4-(((2-(2,6-dioxopiperidin-3-yl)-1-oxoisoindolin-4-yl)oxy)methyl)benzyl)piperazin-1-yl)pyridin-2-yl)-1H-imidazol-4-carboxamide]: inhibition was half-maximal at 0.1 nM (IC50).
For the compound `O=C1CCC(N2C(=O)c3cccc4c(Cc5ccc(CN6CCN(c7ccnc(-c8cncs8)n7)CC6)cc5)ccc2c34)C(=O)N1` (stereo not shown) [Example 58, 3-(2-oxo-6-(4-((4-(2-(thiazol-5-yl)pyrimidin-4-yl)piperazin-1-yl)methyl)benzyl)benzo[fcd]indol-1(2H)-yl)piperidin-2,6-dione], the half-inhibitory concentration (IC50) came to 0.03 nM.
As to `O=C1CCC(N2C(=O)c3cccc4c(Cc5ccc(CN6CCN(c7cc(C(F)(F)F)nc(-c8cncs8)n7)CC6)cc5)ccc2c34)C(=O)N1` (stereo not shown) [Example 59, 3-(2-oxo-6-(4-((4-(2-(thiazol-5-yl)-6-(trifluoromethyl)pyrimidin-4-yl)piperazin-1-yl)methyl)benzyl)benzo[cd]indol-1(2H)-yl)piperidin-2,6-dione], half-maximal inhibition (IC50) was put at 0.2 nM.
`O=C1CCC(N2C(=O)c3cccc4c(Cc5ccc(CN6CCN(c7nc(-c8cncs8)ncc7F)CC6)cc5)ccc2c34)C(=O)N1` (stereo not shown) [Example 60, 3-(6-(4-((4-(5-fluoro-2-(thiazol-5-yl)pyrimidin-4-yl)piperazin-1-yl)methyl)benzyl)-2-oxobenzo[cd]indol-1(2H)-yl)piperidin-2,6-dione] displayed an IC50 of 0.03 nM.
The figure for `Cn1c(-c2nccc(N3CCN(Cc4ccc(Cc5ccc6c7c(cccc57)C(=O)N6C5CCC(=O)NC5=O)cc4)CC3)n2)cnc1C(F)(F)F` (stereo not shown) [Example 61, 3-(6-(4-((4-(2-(1-methyl-2-(trifluoromethyl)-1H-imidazol-5-yl)pyrimidin-4-yl)piperazin-1-yl)methyl)benzyl)-2-oxobenzo[cd]indol-1(2H)-yl)piperidin-2,6-dione] is 0.02 nM.
The figure for `O=C1CCC(N2C(=O)c3cccc4c(Cc5ccc(CN6CCN(c7cccc(-n8cnc(C(F)(F)F)n8)n7)CC6)cc5)ccc2c34)C(=O)N1` (stereo not shown) [Example 62, 3-(2-oxo-6-(4-((4-(6-(3-(trifluoromethyl)-1H-1,2,4-triazol-1-yl)pyridin-2-yl)piperazin-1-yl)methyl)benzyl)benzo[cd]indol-1(2H)-yl)piperidin-2,6-dione] is 0.07 nM; for `O=C1CCC(N2C(=O)c3cccc4c(Cc5ccc(CN6CCN(c7cccc(-c8nnc(C(F)(F)F)s8)n7)CC6)cc5)ccc2c34)C(=O)N1` (stereo not shown) [Example 63, 3-(2-oxo-6-(4-((4-(6-(5-(trifluoromethyl)-1,3,4-thiadiazol-2-yl)pyridin-2-yl)piperazin-1-yl)methyl)benzyl)benzo[cd]indol-1(2H)-yl)piperidin-2,6-dione] it is 0.2 nM; for `O=C1CCC(N2C(=O)c3cccc4c(Cc5ccc(CN6CCN(c7ccnc(-c8cccnc8)n7)CC6)cc5)ccc2c34)C(=O)N1` (stereo not shown) [Example 64, 3-(2-oxo-6-(4-((4-(2-(pyridin-3-yl)pyrimidin-4-yl)piperazin-1-yl)methyl)benzyl)benzo[cd]indol-1(2H)-yl)piperidin-2,6-dione] it is 0.02 nM.
As to `Cc1noc(C)c1-c1nccc(N2CCN(Cc3ccc(Cc4ccc5c6c(cccc46)C(=O)N5C4CCC(=O)NC4=O)cc3)CC2)n1` (stereo not shown) [Example 65, 3-(6-(4-((4-(2-(3,5-dimethylisoxazol-4-yl)pyrimidin-4-yl)piperazin-1-yl)methyl)benzyl)-2-oxobenzo[cd]indol-1(2H)-yl)piperidin-2,6-dione], half-maximal inhibition (IC50) required 0.03 nM.
Compound `Cc1ncn(-c2cccc(N3CCN(Cc4ccc(COc5cccc6c5CN([C@H]5CCC(=O)NC5=O)C6=O)cc4)CC3)n2)n1` [Example 66, (S)-3-(4-((4-((4-(6-(3-methyl-1H-1,2,4-triazol-1-yl)pyridin-2-Vl)piperazin-1-yl)methyl)benzyl)oxy)-1-oxoisoindolin-2-yl)piperidin-2,6-dione] had a 50% inhibitory concentration (IC50) of 0.1 nM.
`Cc1ncc(-c2ncc(F)c(N3CCN(Cc4ccc(Cc5ccc6c7c(cccc57)C(=O)N6C5CCC(=O)NC5=O)cc4)CC3)n2)s1` (stereo not shown) [Example 67, 3-(6-(4-((4-(5-fluoro-2-(2-methylthiazol-5-yl)pyrimidin-4-yl)piperazin-1-yl)methyl)benzyl)-2-oxobenzo[cd]indol-1(2H)-yl)piperidin-2,6-dione] had a 50% inhibitory concentration (IC50) of 0.07 nM.
The figure for `Cc1ncn(-c2ncc(F)c(N3CCN(Cc4ccc(Cc5ccc6c7c(cccc57)C(=O)N6C5CCC(=O)NC5=O)cc4)CC3)n2)n1` (stereo not shown) [Example 68, 3-(6-(4-((4-(5-fluoro-2-(3-methyl-1H-1,2,4-triazol-1-yl)pyrimidin-4-yl)piperazin-1-yl)methyl)benzyl)-2-oxobenzo[cd]indol-1(2H)-yl)piperidin-2,6-dione] is 0.02 nM.

The values are drawn from patent US20260272924A1, “ISOINDOLINE DERIVATIVE, BENZOINDOLE DERIVATIVE AND USE THEREOF” (SHANGHAI HELIOSON PHARMACEUTICAL CO., LTD., priority 2023, published 2026).
